# Results from US7300937B2, “Derivatives of cyano-aryl (or cyanoheteroaryl)-carbonyl-piperazinyl-pyrimidines, their preparation and application as medication” (Laboratorios del Dr. Esteve, S.A., priority 2001, dated 2007).
# Structures can show the parent of a compound that is named as a salt. Marks after values point to notes of the source that are not given here.
# Tests used:
# [1] = test system: mice; assay: Sedative activity in mice (behaviour observation); format: in vivo, mouse; set-up: unit not given here; details: 80 mg/kg i.p.
# Description: The sedative activity was studied by observing the animals' behaviour after intraperitoneal (i.p.) administration of a dose of 80 mg/kg. This observation was conducted at different times, allowing to know the sedative effect and its duration.
# [2] = test system: convulsions induced by IV injection of pentamethylentetrazol (cardiazol); assay: Anticonvulsive activity in mice (convulsions due to cardiazol); format: in vivo, mouse; details: for ED50: Mus musculus; for % Activity: mice, cardiazol 45 mg/kg IV
# [3] = test system: dog; assay: Anaesthetic activity in dogs (IV infusion); details: IV infusion 5 mg/ml/minute until fully anaesthetised
# Description: A saline solution of the product in study was perfused by means of a perfusion pump in a concentration and rate of 5 mg/ml/minute, through a cannula inserted in a vein of the front leg.
# [4] = test system: body tone and abdominal tone of the rats; assay: Myorelaxant activity in the IRWIN test in rats; format: in vivo, rat; details: 80 mg/kg ip
# Description: The activity as muscular relaxant of the products of the invention was studied, by evaluating the effect on body tone and abdominal tone of the rats, following the method described by S. IRWIN (Gordon Res. Conf. on Medicinal Chem.,1959. p.133). The rats received the products under study in a dose of 80 mg/kg ip, and at several times after administration (½, 1, 2, 3, 4 and 5 hours) the body and abdominal tone were evaluated, comparing muscle tension to that of the control animals.
# [5] = test system: mouse; assay: Anaesthetic activity in mice (IV, loss of three reflexes); details: for time of anaesthesia: average time
# Description: The anaesthetic activity was determined after intravenous (IV) administration of the product under study in three different doses (15, 10 and 5 mg/kg) in the caudal vein of the mouse. The percentage of anaesthetised animals was recorded and the average time of anaesthesia calculated. Mice were considered to be anaesthetised when losing the three reflexes: positional reflex, response to painful stimulus reflex (prick in the tail) and palpebral reflex.
# [6] = test system: rat; assay: Anaesthetic activity in rats (IV infusion to maintain full anaesthesia for 1 hour); details: IV infusion required to maintain full anaesthesia for 1 hour
# Description: In this test, through the cannulated caudal vein of a rat was perfused a solution of the products under study with a concentration of 10 mg/kg. The rate of perfusion was varied to keep the rats anaesthetised for 1 hour.
SMILES,Sedative activity ([1]; 30′),Sedative activity ([1]; 1 h),Sedative activity ([1]; 2 h),Sedative activity ([1]; 3 h),Sedative activity ([1]; 4 h),Sedative activity ([1]; 5 h),Sedative activity ([1]; 24 h),ED50 [2] [mg/kg],% Activity ([2]; 20 mg/kg i.p.) [%],% Activity ([2]; 40 mg/kg i.p.) [%],% Activity ([2]; 80 mg/kg i.p.) [%],Anaesthetic dose [3],% muscular relaxation ([4]; after 1 h.) [%],% muscular relaxation ([4]; after 2 h.) [%],% muscular relaxation ([4]; after 3 h.) [%],% muscular relaxation ([4]; after 4 h.) [%],% muscular relaxation ([4]; after 5 h.) [%],% muscular relaxation ([4]; after ½ h.) [%],% anaesthetised ([5]; 5 mg/kg iv) [%],% anaesthetised ([5]; 10 mg/kg iv) [%],other results
"CCOc1ccnc(N2CCN(C(=O)c3ccccc3C#N)CC2)n1 (as salt: HCl) [Example 4, 2-[4-(2-cyanobenzoyl)-1-piperazinyl]-4-ethoxypyrimidine hydrochloride]",–,–,–,–,–,–,–,–,–,–,–,–,–,–,–,–,–,–,–,–,melting point: 147 to 151 °C
"Cc1ccc(-c2nc3ccc(C)cn3c2CC(=O)N(C)C)cc1 [Zolpidem, reference compound]",100,90,30,0,0,0,0,–,–,–,–,–,–,–,–,–,–,–,–,–,–
"CC(C)c1cccc(C(C)C)c1O [Propofol, reference compound]",–,–,–,–,–,–,–,32.5,33,46,100,21.6* mg/kg,100,70,0,0,0,100,0,80,time of anaesthesia ([5]; 10 mg/kg iv): 1 ′; % anaesthetised ([5]; 15 mg/kg iv): 80%; time of anaesthesia ([5]; 15 mg/kg iv): 1.3 ′; Total dose [6]: 67 mg/kg
"CCOc1ccnc(N2CCN(C(=O)c3ccccc3C#N)CC2)n1 [Example 4, 2-[4-(2-cyanobenzoyl)-1-piperazinyl]-4-ethoxypyrimidine hydrochloride]",90,75,75,35,0,0,0,25.1,40,69,87,10.1 mg/kg,100,100,70,33,0,100,0,100,time of anaesthesia ([5]; 10 mg/kg iv): 2.6 ′; % anaesthetised ([5]; 15 mg/kg iv): 100%; time of anaesthesia ([5]; 15 mg/kg iv): 5.8 ′; Total dose [6]: 56.8 mg/kg
